Where two headings read alike, the source gives them in different places.
Legend:
Assay in all cases: Etest MIC of indicator carbapenems on MH II agar without/with PMBN
Type in all cases: cell-based
K. pneumoniae 1204034 = tested on: K. pneumoniae 1204034
Protocol: (§1) The determinations of antibiotic MIC were carried out on solid culture media with the Etest® method. To do this, Etest® strips (bioMérieux, France) were used: • Etest® Imipenem IM 32, and • Etest® Ertapenem ETP 32, and also solid culture media, differing from one another by virtue of their non-inhibitory concentrations of PMBN.
(§2) These solid culture media are prepared in Petri dishes (0=145 mm; V=50 ml) on a base of MH II Agar (Becton Dickinson®, United States), more or less supplemented with PMBN. The PMBN concentrations range from 0 up to concentrations equivalent to one fifth of the MIC of PMBN (⅕ MICPMBN).
(§3) Using a swab and the Retro C80™ rota-plater (bioMérieux, France), the culture media were inoculated with the bacteria, originating from an inoculum of 0.5 McFarland, prepared in 0.85% NaCl solution from colonies subcultured the day before on MH II agar.
(§4) The various Etest® strips are then deposited on the surface of the culture media. After 16 to 20 hours of incubation at 35° C., the MICS were read.
(§5) To do this, imipenem and ertapenem were used as indicator carbapenems. Non-inhibitory concentrations of PMBN, equivalent to concentrations of one tenth ( 1/10), one eighth (⅛) and one fifth (⅕) of the MIC of PMBN, were applied.
(§6) In the light of the MICPMBN values previously identified, very predominantly much higher than 300 μg/ml, the following standard concentrations were retained and applied to the bacterial strains to be tested: 50, 100, 150, 200 and 300 μg/ml.
(§7) By way of indicator carbapenems according to the invention, in addition to imipenem (IM) and ertapenem (ETP), meropenem (MP) was also tested. Like the other two antibiotics, meropenem was used in the form of Etest® strips (Etest® Meropenem MP 32 from the company bioMérieux, France).
(§8) The methods used to prepare the new culture media and to carry out the antibiotic-sensitivity tests are identical to those described above.

E. aerogenes 9306071 = tested on: E. aerogenes 9306071
Protocol: as §1, §2, §3, §4, §5, §6, §7, §8

E. cloacae 9402034 = tested on: E. cloacae 9402034
Protocol: as §1, §2, §3, §4, §5, §6, §7, §8

E. aerogenes 9203076 = tested on: E. aerogenes 9203076
Protocol: as §1, §2, §3, §4, §5, §6, §7, §8

[1] = tested on: K. pneumoniae 1012335 (OXA-48 producer)
Protocol: as §1, §2, §3, §4, §5

[2] = tested on: K. pneumoniae 0901027 (KPC-3 producer)
Protocol: as §1, §2, §3, §4, §5

## C[C@@H](O)[C@H]1C(=O)N2C(C(=O)O)=C(SCCN=CN)C[C@H]12 [IM, imipenem]
K. pneumoniae 1204034; K. pneumoniae 1204034 (membrane impermeability), [PMBN] 100, Table 4a
  MIC: 0.5 µg/mL
K. pneumoniae 1204034; K. pneumoniae 1204034 (membrane impermeability), [PMBN] 200, Table 4a
  MIC: 0.38 µg/mL
K. pneumoniae 1204034; K. pneumoniae 1204034 (membrane impermeability), [PMBN] 300, Table 4a
  MIC: 0.19 µg/mL
K. pneumoniae 1204034; K. pneumoniae 1204034, [PMBN] 0, Table 3
  MIC: 2 µg/mL
K. pneumoniae 1204034; K. pneumoniae 1204034, [PMBN] MIC/5
  MIC: 0.5 µg/mL
K. pneumoniae 1204034; K. pneumoniae 1204034, [PMBN] MIC/8
  MIC: 0.5 µg/mL
K. pneumoniae 1204034; K. pneumoniae 1204034, [PMBN] MIC/10
  MIC: 0.5 µg/mL
K. pneumoniae 1204034; Klebsiella pneumoniae, 1204034, K. pneumoniae 1204034 (porin−), [PMBN] 0, Table 4, read-out: MIC
  MIC: 2 µg/mL
K. pneumoniae 1204034; Klebsiella pneumoniae, 1204034, K. pneumoniae 1204034 (porin−), [PMBN] 150 μg/ml, Table 4, read-out: MIC
  MIC: 0.38 µg/mL
K. pneumoniae 1204034; Klebsiella pneumoniae, 1204034, K. pneumoniae 1204034 (porin−), [PMBN] 200 μg/ml, Table 4, read-out: MIC
  MIC: 0.38 µg/mL
E. aerogenes 9306071; E. aerogenes 9306071 (membrane impermeability), [PMBN] 0, Table 4a
  MIC: 12 µg/mL
E. aerogenes 9306071; E. aerogenes 9306071 (membrane impermeability), [PMBN] 100, Table 4a
  MIC: 6 µg/mL
E. aerogenes 9306071; E. aerogenes 9306071 (membrane impermeability), [PMBN] 200, Table 4a
  MIC: 3 µg/mL
E. aerogenes 9306071; E. aerogenes 9306071 (membrane impermeability), [PMBN] 300, Table 4a
  MIC: 2 µg/mL
E. aerogenes 9306071; E. aerogenes 9306071, [PMBN] 0, Table 3
  MIC: 8 µg/mL
E. aerogenes 9306071; E. aerogenes 9306071, [PMBN] MIC/5
  MIC: 2 µg/mL
E. aerogenes 9306071; E. aerogenes 9306071, [PMBN] MIC/8
  MIC: 4 µg/mL
E. aerogenes 9306071; E. aerogenes 9306071, [PMBN] MIC/10
  MIC: 4 µg/mL
E. cloacae 9402034; E. cloacae 9402034 (membrane impermeability), [PMBN] 0, Table 4a
  MIC: > 32 µg/mL
E. cloacae 9402034; E. cloacae 9402034 (membrane impermeability), [PMBN] 100, Table 4a
  MIC: 8 µg/mL
E. cloacae 9402034; E. cloacae 9402034 (membrane impermeability), [PMBN] 200, Table 4a
  MIC: 12 µg/mL
E. cloacae 9402034; E. cloacae 9402034 (membrane impermeability), [PMBN] 300, Table 4a
  MIC: 12 µg/mL
E. cloacae 9402034; E. cloacae 9402034, [PMBN] 0, Table 3
  MIC: 16 µg/mL
E. cloacae 9402034; E. cloacae 9402034, [PMBN] MIC/5
  MIC: 8 µg/mL
E. cloacae 9402034; E. cloacae 9402034, [PMBN] MIC/8
  MIC: 8 µg/mL
E. cloacae 9402034; E. cloacae 9402034, [PMBN] MIC/10
  MIC: 8 µg/mL
E. aerogenes 9203076; E. aerogenes 9203076 (membrane impermeability), [PMBN] 0, Table 4a, in µg/mL
  MIC: 8
E. aerogenes 9203076; E. aerogenes 9203076 (membrane impermeability), [PMBN] 100, Table 4a, in µg/mL
  MIC: 16
E. aerogenes 9203076; E. aerogenes 9203076 (membrane impermeability), [PMBN] 200, Table 4a, in µg/mL
  MIC: 4
E. aerogenes 9203076; E. aerogenes 9203076 (membrane impermeability), [PMBN] 300, Table 4a, in µg/mL
  MIC: 4
E. aerogenes 9203076; E. aerogenes 9203076, [PMBN] 0, Table 3, in µg/mL
  MIC: 8
E. aerogenes 9203076; E. aerogenes 9203076, [PMBN] MIC/5, in µg/mL
  MIC: 2
E. aerogenes 9203076; E. aerogenes 9203076, [PMBN] MIC/8, in µg/mL
  MIC: 2
E. aerogenes 9203076; E. aerogenes 9203076, [PMBN] MIC/10, in µg/mL
  MIC: 2
E. aerogenes 9203076; Klebsiella aerogenes, 9203076, E. aerogenes 9203076 (porin−), [PMBN] 0, Table 4, read-out: MIC
  MIC: 6 µg/mL
E. aerogenes 9203076; Klebsiella aerogenes, 9203076, E. aerogenes 9203076 (porin−), [PMBN] 150 μg/ml, Table 4, read-out: MIC
  MIC: 3 µg/mL
E. aerogenes 9203076; Klebsiella aerogenes, 9203076, E. aerogenes 9203076 (porin−), [PMBN] 200 μg/ml, Table 4, read-out: MIC
  MIC: 3 µg/mL
[1]; [PMBN] 0
  MIC: 2 µg/mL
[1]; [PMBN] MIC/5
  MIC: 2 µg/mL
[1]; [PMBN] MIC/8
  MIC: 2 µg/mL
[1]; [PMBN] MIC/10
  MIC: 2 µg/mL
[2]; [PMBN] 0
  MIC: 8 µg/mL
[2]; [PMBN] MIC/5
  MIC: 16 µg/mL
[2]; [PMBN] MIC/8
  MIC: 8 µg/mL
[2]; [PMBN] MIC/10
  MIC: 16 µg/mL
